Measurements as given in PubChem BioAssay (NCI).
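Following 48 hours of exposure in 96-well plates, responses at five concentrations were used to interpolate endpoints linearly. The concentration for 50% growth inhibition is given as GI50. TGI marks complete inhibition of growth.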

Key:
Test in all cases: growth of human tumour cells (NCI), 48 h
786-0 renal = tested on: 786-0 renal
A498 renal = tested on: A498 renal
A549 NSCLC = tested on: A549 NSCLC
ACHN renal = tested on: ACHN renal
BT-549 breast = tested on: BT-549 breast
CAKI-1 renal = tested on: CAKI-1 renal
CCRF-CEM leukemia = tested on: CCRF-CEM leukemia
COLO 205 colon = tested on: COLO 205 colon
DU-145 prostate = tested on: DU-145 prostate
HCC-2998 colon = tested on: HCC-2998 colon
HCT-116 colon = tested on: HCT-116 colon
HCT-15 colon = tested on: HCT-15 colon
HL-60(TB) leukemia = tested on: HL-60(TB) leukemia
HOP-62 NSCLC = tested on: HOP-62 NSCLC
HS 578T breast = tested on: HS 578T breast
HT29 colon = tested on: HT29 colon
IGROV1 ovarian = tested on: IGROV1 ovarian
K-562 leukemia = tested on: K-562 leukemia
KM12 colon = tested on: KM12 colon
LOX IMVI melanoma = tested on: LOX IMVI melanoma
M14 melanoma = tested on: M14 melanoma
MALME-3M melanoma = tested on: MALME-3M melanoma
MCF7 breast = tested on: MCF7 breast
MDA-MB-231 breast = tested on: MDA-MB-231 breast
MDA-MB-435 = tested on: MDA-MB-435
MOLT-4 leukemia = tested on: MOLT-4 leukemia
NCI-H226 lung = tested on: NCI-H226 lung
NCI-H23 lung = tested on: NCI-H23 lung
NCI-H460 lung = tested on: NCI-H460 lung
NCI-H522 lung = tested on: NCI-H522 lung
NCI/ADR-RES ovarian = tested on: NCI/ADR-RES ovarian
OVCAR-3 ovarian = tested on: OVCAR-3 ovarian
OVCAR-4 ovarian = tested on: OVCAR-4 ovarian
OVCAR-5 ovarian = tested on: OVCAR-5 ovarian
OVCAR-8 ovarian = tested on: OVCAR-8 ovarian
PC-3 prostate = tested on: PC-3 prostate
RPMI-8226 leukemia = tested on: RPMI-8226 leukemia
RXF 393 renal = tested on: RXF 393 renal
SF-268 CNS = tested on: SF-268 CNS
SF-295 CNS = tested on: SF-295 CNS
SF-539 CNS = tested on: SF-539 CNS
SK-MEL-2 melanoma = tested on: SK-MEL-2 melanoma
SK-MEL-28 melanoma = tested on: SK-MEL-28 melanoma
SK-MEL-5 melanoma = tested on: SK-MEL-5 melanoma
SK-OV-3 ovarian = tested on: SK-OV-3 ovarian
SN12C renal = tested on: SN12C renal
SNB-19 CNS = tested on: SNB-19 CNS
SNB-75 CNS = tested on: SNB-75 CNS
SR leukemia = tested on: SR leukemia
SW-620 colon = tested on: SW-620 colon
T-47D breast = tested on: T-47D breast
TK-10 renal = tested on: TK-10 renal
U251 CNS = tested on: U251 CNS
UACC-257 melanoma = tested on: UACC-257 melanoma
UACC-62 melanoma = tested on: UACC-62 melanoma
UO-31 renal = tested on: UO-31 renal

Cn1cc(C2=C(c3cn(CCN)c4ccccc34)C(=O)NC2=O)c2ccccc21
GI50 (786-0 renal): 8.98 µM | TGI (786-0 renal): > 25 µM | GI50 (A498 renal): 7.79 µM | TGI (A498 renal): 17.6 µM | GI50 (A549 NSCLC): 6.75 µM | TGI (A549 NSCLC): > 25 µM | GI50 (ACHN renal): 5.47 µM | TGI (ACHN renal): > 25 µM | GI50 (BT-549 breast): 7.82 µM | TGI (BT-549 breast): > 23.8 µM | GI50 (CAKI-1 renal): 4.18 µM | TGI (CAKI-1 renal): 24.5 µM | GI50 (CCRF-CEM leukemia): 6.05 µM | TGI (CCRF-CEM leukemia): > 22.7 µM | GI50 (COLO 205 colon): 2.7 µM | TGI (COLO 205 colon): 7.15 µM | GI50 (DU-145 prostate): 8.63 µM | TGI (DU-145 prostate): > 25 µM | GI50 (HCC-2998 colon): 7.22 µM | TGI (HCC-2998 colon): 20.9 µM | GI50 (HCT-116 colon): 5.57 µM | TGI (HCT-116 colon): > 25 µM | GI50 (HCT-15 colon): 6.79 µM | TGI (HCT-15 colon): > 25 µM | GI50 (HL-60(TB) leukemia): 6.55 µM | TGI (HL-60(TB) leukemia): 14.9 µM | GI50 (HOP-62 NSCLC): 6.07 µM | TGI (HOP-62 NSCLC): > 19.7 µM | GI50 (HS 578T breast): 4.32 µM | TGI (HS 578T breast): 20.2 µM | GI50 (HT29 colon): 4.2 µM | TGI (HT29 colon): 15.7 µM | GI50 (IGROV1 ovarian): 9.3 µM | TGI (IGROV1 ovarian): > 21 µM | GI50 (K-562 leukemia): 8.4 µM | TGI (K-562 leukemia): > 25 µM | GI50 (KM12 colon): 6.69 µM | TGI (KM12 colon): > 20.6 µM | GI50 (LOX IMVI melanoma): 6.05 µM | TGI (LOX IMVI melanoma): > 22.8 µM | GI50 (M14 melanoma): 6.15 µM | TGI (M14 melanoma): 19.5 µM | GI50 (MALME-3M melanoma): 5.99 µM | TGI (MALME-3M melanoma): 13.5 µM | GI50 (MCF7 breast): 3.72 µM | TGI (MCF7 breast): > 23.4 µM | GI50 (MDA-MB-231 breast): 6 µM | TGI (MDA-MB-231 breast): 19.2 µM | GI50 (MDA-MB-435): 3.81 µM | TGI (MDA-MB-435): 19.4 µM | GI50 (MOLT-4 leukemia): 6.48 µM | TGI (MOLT-4 leukemia): 19.9 µM | GI50 (NCI-H226 lung): 4.44 µM | TGI (NCI-H226 lung): 18.1 µM | GI50 (NCI-H23 lung): 5.15 µM | TGI (NCI-H23 lung): 15.1 µM | GI50 (NCI-H460 lung): 7.54 µM | TGI (NCI-H460 lung): > 25 µM | GI50 (NCI-H522 lung): 6.01 µM | TGI (NCI-H522 lung): 17.2 µM | GI50 (NCI/ADR-RES ovarian): 10.7 µM | TGI (NCI/ADR-RES ovarian): > 25 µM | GI50 (OVCAR-3 ovarian): 7.47 µM | TGI (OVCAR-3 ovarian): > 23.9 µM | GI50 (OVCAR-4 ovarian): 5.66 µM | TGI (OVCAR-4 ovarian): > 21.2 µM | GI50 (OVCAR-5 ovarian): 10.8 µM | TGI (OVCAR-5 ovarian): > 25 µM | GI50 (OVCAR-8 ovarian): 6.3 µM | TGI (OVCAR-8 ovarian): > 22.3 µM | GI50 (PC-3 prostate): 5.14 µM | TGI (PC-3 prostate): > 19.7 µM | GI50 (RPMI-8226 leukemia): 6.29 µM | TGI (RPMI-8226 leukemia): 15.5 µM | GI50 (RXF 393 renal): 3.74 µM | TGI (RXF 393 renal): 10.1 µM | GI50 (SF-268 CNS): 7.41 µM | TGI (SF-268 CNS): 20.4 µM | GI50 (SF-295 CNS): 5.54 µM | TGI (SF-295 CNS): 16.7 µM | GI50 (SF-539 CNS): 4.83 µM | TGI (SF-539 CNS): 13.9 µM | GI50 (SK-MEL-2 melanoma): 5.12 µM | TGI (SK-MEL-2 melanoma): 12.1 µM | GI50 (SK-MEL-28 melanoma): 7.68 µM | TGI (SK-MEL-28 melanoma): > 25 µM | GI50 (SK-MEL-5 melanoma): 4.59 µM | TGI (SK-MEL-5 melanoma): 13 µM | GI50 (SK-OV-3 ovarian): 6.17 µM | TGI (SK-OV-3 ovarian): 24.4 µM | GI50 (SN12C renal): 5.87 µM | TGI (SN12C renal): > 25 µM | GI50 (SNB-19 CNS): 8.13 µM | TGI (SNB-19 CNS): > 25 µM | GI50 (SNB-75 CNS): 0.587 µM | TGI (SNB-75 CNS): 6.72 µM | GI50 (SR leukemia): 4.8 µM | TGI (SR leukemia): 17 µM | GI50 (SW-620 colon): 6.25 µM | TGI (SW-620 colon): > 20.1 µM | GI50 (T-47D breast): 5.32 µM | TGI (T-47D breast): 14.7 µM | GI50 (TK-10 renal): 6.3 µM | TGI (TK-10 renal): 18.8 µM | GI50 (U251 CNS): 5.61 µM | TGI (U251 CNS): > 20.5 µM | GI50 (UACC-257 melanoma): 6.17 µM | TGI (UACC-257 melanoma): 15.2 µM | GI50 (UACC-62 melanoma): 5.9 µM | TGI (UACC-62 melanoma): 17.2 µM | GI50 (UO-31 renal): 3.7 µM | TGI (UO-31 renal): 20.6 µM
